# Key:
# Aβ fibrils = conditions: non-Cu binding blocking agent; cited from earlier work
# [1] = pH-spectrophotometric titration, stability constants of Cu^2+ complexes; type: physicochemical; conditions: for Calculated pCu (−log[Cu]free): [Cu^2+]tot = [chelator]tot = 50 μM
# Experimental: Similar spectrophotometric titrations were performed to determine the stability constants and solution speciation of Cu^2+ with L3-L6. Stability constants were determined by titrating solutions of the compounds and equimolar amounts of Cu(ClO4)2.6H2O (50 μM or 0.5 mM) with small aliquots of 0.1 M NaOH at room temperature. At least 30 UV-vis spectra were collected in the pH 3-11 range (FIG. 2). The acidity and stability constants were calculated using the HypSpec computer program (Protonic Software, UK, Gans, P.; Sabatini, A.; Vacca, A. Ann. Chim. 1999, 45). Speciation plots of the compounds and their metal complexes were calculated using the program HySS2009 (Protonic Software, UK) (Alderighi, L. Coord. Chem. Rev. 1999, 184, 311). […] The data obtained for the Cu complex of compound L7 could not be fit satisfactorily using a reasonable model, most likely due to a multinuclear complex formation, as observed by X-ray crystallography.
# [2] = UV-vis pH titration, acidity constant determination; type: physicochemical; conditions: 50 μM, 0.1 M NaCl, room temperature, methanol-water (methanol ≤20% v:v); for [HL1]/[L1]^− (pKa4): assigned to the phenol group
# Experimental: UV-vis pH titrations were employed to determine the acidity constants of compounds L3-L7 and the stability constants of their Cu^2+ complexes. For acidity constants, solutions of the bifunctional compound (50 μM, 0.1 M NaCl, pH 3) were titrated with small aliquots of 0.1 M NaOH at room temperature. At least 30 UV-vis spectra were collected in the pH 3-11 range (FIG. 1).
# Aβ40 fibrils = target: T1, Aβ40 fibrils (Homo sapiens, UniProt P05067); test: Direct fluorescence assay with Aβ fibrils; type: binding; conditions: [Aβ]=5 μM, λex/λem=350/450 nm; read-out: Kd, Aβ fibrils, compound fluorescence
# T1 construct: purchased Keck Biotechnology Resource Laboratory, Yale University
# Experimental: (§1) Aβ monomeric films were prepared by dissolving commercial Aβ42 (or Aβ40 for Aβ fibril binding studies) peptide (Keck Biotechnology Resource Laboratory, Yale University) in hexafluoroisopropanol (HFIP) (1 mM) and incubating for 1 hour at room temperature (Klein, W. L. Neurochemistry International 2002, 41, 345). The solution was then aliquoted out and evaporated overnight. The aliquots were vacuum centrifuged and the resulting monomeric films stored at −80° C. Aβ fibrils were generated by dissolving monomeric Aβ films in dimethyl sulfoxide (DMSO), diluting into the appropriate buffer, and incubating for 24 hours at 37° C. with continuous agitation (final DMSO concentration was <2%). […]
# (§2) All fluorescence measurements were performed using a SpectraMax M2e plate reader (Molecular Devices). For ThT fluorescence studies, samples were diluted to a final concentration of 2.5 μM Aβ in phosphate buffered saline (PBS) solution containing 10 μM ThT and the fluorescence measured at 485 nm (λex=435 nm). For Aβ fibril binding studies, a 5 μM Aβ fibril solution was titrated with small amounts of compound and their fluorescence intensity measured (λex/λem=350/450 nm). For ThT competition assays, a 2 μM Aβ fibril solution with 1 μM ThT was titrated with small amounts of compound and the ThT fluorescence measured (λex/λem=435/485 nm). […]
# [3] = Biodistribution and brain uptake of ^64Cu-radiolabeled compounds; type: in vivo, wild type CD-1 female mice; conditions: ^64Cu complexes, tail vein injection, 2, 60 and 240 min
# Experimental: Biodistribution studies were conducted in wild type CD-1 female mice (Charles River Laboratories) of age 5-7 weeks weighing 25.4±1.4 g. The injection dose was prepared by diluting to a 90% saline solution. The uptake of compounds was evaluated in mice (L3 and L6, n=7; L4, L5, and L7, n=3) that were injected via the tail vein with 0.22-0.37 MBq (6-10 μCi) of each compound per animal in 100 μL saline. After each time points (2, 60, and 240 min), mice were anesthetized with 1-2% isoflurane and sacrificed by cervical dislocation. Brain, blood, kidney, liver and other organs of interest were harvested and amount of radioactivity in each organ was counted on a gamma counter containing a NaI crystal. The data was corrected for radioactive decay and percent injected dose per gram (% ID/g) of tissue was calculated. All samples were calibrated against a known standard. Quantitative data were processed by Prism 6 (GraphPad Software, v 6.03, La Jolla, Calif.) and expressed as Mean±SEM. Statistical analysis performed using one-way analysis of variance and Student's t test. Differences at the 95% confidence level (p<0.05) were considered statistically significant.
# ThT-bound Aβ40 fibrils = target: T2, ThT-bound Aβ40 fibrils (Homo sapiens, UniProt P05067); test: ThT fluorescence competition assay; type: binding; conditions: [Aβ]=2 μM, [ThT]=1 μM
# T2 construct: purchased Keck Biotechnology Resource Laboratory, Yale University
# Experimental: as §1, §2
# Aβ deposits = conditions: cited from earlier work
# [4] = Cu^2+ complex, equimolar Cu(ClO4)2, room temperature
# T2 sequence (P05067 672-711 limits assumed): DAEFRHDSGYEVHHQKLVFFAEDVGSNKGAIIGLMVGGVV
# T1 sequence (P05067 672-711 limits assumed): as above
Compound,[H2L1]^+/[HL1] (pKa3) [2],[H3L1]^+2/[H2L1]^+ (pKa2) [2],[H4L1]^3+/[H3L1]^2+ (pKa1) [2],[HL1]/[L1]^− (pKa4) [2],"Stability constant, M^2+ + L^− = [ML]^+ [1, 4]","Stability constant, M^2+ + HL = [MHL]^+2 [1, 4]",Brain uptake and wash out [3],also measured
"Oc1cccc2scnc12 [BTZ, 4-hydroxybenzothiazole]",–,–,–,–,–,–,–,Affinity for Aβ fibrils (Aβ fibrils): nanomolar affinity
"O=C(O)CN(CCN(CC(=O)O)CC(=O)O)CCN(CC(=O)O)CC(=O)O [DTPA, diethylene triamine pentaacetic acid, reference compound]",–,–,–,–,–,–,–,Calculated pCu (−log[Cu]free) ([1]; pH 6.6): 9.3; Calculated pCu (−log[Cu]free) ([1]; pH 7.4): 10.1
COc1ccc(/C=C/c2ccc(O)cc2)cc1OC [L8],–,–,–,–,–,–,–,Ki (ThT-bound Aβ40 fibrils): 66 ± 20 nM
[11CH3]Nc1ccc(-c2nc3ccc(O)cc3s2)cc1 [^11C-PiB],–,–,–,–,–,–,–,"Binding to soluble amyloid, NFTs, Lewy bodies (Aβ deposits; at nanomolar concentrations): does not bind; Binding to Aβ deposits (Aβ deposits; in vitro autoradiography): binds to aggregated, fibrillar Aβ deposits"

# Now from value to compound, other results behind:
[H2L1]^+/[HL1] (pKa3) [2],[H3L1]^+2/[H2L1]^+ (pKa2) [2],[H4L1]^3+/[H3L1]^2+ (pKa1) [2],[HL1]/[L1]^− (pKa4) [2],"Stability constant, M^2+ + L^− = [ML]^+ [1, 4]","Stability constant, M^2+ + HL = [MHL]^+2 [1, 4]",Compound,Brain uptake and wash out [3],also measured
8.27,6.35,3.78,9.34,31.96(60),–,COc1cc(-c2nc3ccccc3s2)cc(CN2CCN(C)CCN(C)CC2)c1O [L3],–,"Stability constant, [ML(H2O)]^+1 = [ML(OH)] + H^+ [1, 4]: 10.14(60); Kd (Aβ40 fibrils): ~575 nM"
9.34,7.84,5.14,10.14,27.093,2.881,COc1cc(-c2nc3ccccc3s2)cc(CN2Cc3cccc(n3)CNCc3cccc(n3)C2)c1O [L4],"higher initial brain uptake at 2 min, followed by rapid wash out",–
8.02,5.61,4.80,9.60,27.224,4.008,COc1cc(-c2nc3ccccc3s2)cc(CN2Cc3cccc(n3)CN(C)Cc3cccc(n3)C2)c1O [L5],"higher initial brain uptake at 2 min, followed by rapid wash out",–
8.71,6.93,4.57,9.98,30.098,3.012,COc1cc(-c2nc3ccccc3s2)cc(CN2Cc3cccc(n3)CN(CC(=O)O)Cc3cccc(n3)C2)c1O [L6],"higher initial brain uptake at 2 min, followed by rapid wash out",Ki (ThT-bound Aβ40 fibrils): 325 ± 40 nM
8.22,7.39,4.35,10.65,–,–,COc1cc(-c2nc3ccccc3s2)cc(CN2Cc3cccc(n3)CN(Cc3cc(-c4nc5ccccc5s4)cc(OC)c3O)Cc3cccc(n3)C2)c1O [L7],"higher initial brain uptake at 2 min, followed by rapid wash out",–

# Reference: patent US9422286B2, “Metal-binding bifunctional compounds as diagnostic agents for Alzheimer's disease” (Washington University, priority 2014, dated 2016)
